Measured values reported in US7803955B2, “Method for preparing 2,5,7,8-tetramethyl-2-(2′-carboxyethyl)-6-acetoxychroman-precursor- α-CEHC precursor” (Institut Neftekhimii I Kataliza Ran, priority 2005, dated 2010).

Experiments:
[1] = various model oxidative reactions; compared with α-tocopherol, ascorbic acid, Trolox; cited from earlier work
[2] = ratio to α-tocopherol; cited from earlier work
[3] = unlike the known diuretics; cited from earlier work

Structure (SMILES): CC(=O)Oc1c(C)c(C)c2c(c1C)CCC(C)(CCC(=O)O)O2 (stereo not shown) [(V), 2,5,7,8-tetramethyl-2-(2′-carboxyethyl)-6-acetoxychroman]
- melting point: 149 to 150 °C

Structure (SMILES): Cc1c(C)c2c(c(C)c1O)CCC(C)(CCC(=O)O)O2 (stereo not shown) [acid (II), 2,5,7,8-tetramethyl-2-(2′-carboxyethyl)-6-hydroxychroman]
- antioxidant activity in vitro [1]: high antioxidant properties comparable with such known preparations as α-tocopherol, ascorbic acid, and the cardioprotective agent Trolox

Structure (SMILES): CC(=O)Oc1c(C)c(C)c2c(c1C)CCC(C)(CCC[C@H](C)CCC[C@H](C)CCCC(C)C)O2 (stereo partly drawn) [α-tocopheryl acetate]
- vitamin activity relative to non-acetylated α-tocopherol [2]: 1.47 times

Structure (SMILES): Cc1c(O)cc2c(c1C)OC(C)(CCC(=O)O)CC2 (stereo not shown) [γ-CEHC]
- excretion of sodium ions / potassium ions [3]: exclusively selectively promotes the excretion of sodium ions without affecting potassium ions
